Measured values: ChEMBL document CHEMBL1201862, “PubChem BioAssay data set” (2004)
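Grown in 96-well plates, cells were treated for 48 hours with each compound at five concentrations. Insufficient inhibition: endpoint recorded as highest concentration tested. GI50 marks 50% less growth.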 Calls of active or inactive are those of the source. No stated cut-off is given here; in the data, active = GI50 up to about 1.1 µM and inactive = higher.

Key:
Experiment in all cases: inhibition of tumour cell growth, NCI panel, 48 h
[1] = test system: HOP-92
[2] = test system: LOX IMVI
[3] = test system: HOP-62
[4] = test system: NCI-H522
[5] = test system: K562
[6] = test system: MDA-N
[7] = test system: SK-MEL-2
[8] = test system: IGROV-1
[9] = test system: DLD-1
[10] = test system: ACHN
[11] = test system: BT-549
[12] = test system: T47D
[13] = test system: NCI-H460
[14] = test system: OVCAR-8
[15] = test system: RPMI-8226
[16] = test system: PC-3
[17] = test system: DU-145
[18] = test system: A498
[19] = test system: OVCAR-3
[20] = test system: SR
[21] = test system: A549
[22] = test system: SW-620
[23] = test system: SNB-19
[24] = test system: NCI-H23
[25] = test system: OVCAR-5
[26] = test system: HT-29
[27] = test system: LXFL 529
[28] = test system: MDA-MB-231
[29] = test system: SF-295
[30] = test system: RXF 631
[31] = test system: MDA-MB-435
[32] = test system: HCC 2998
[33] = test system: SNB-78
[34] = test system: DMS-273
[35] = test system: HCT-15
[36] = test system: UACC-62
[37] = test system: KM12
[38] = test system: OVCAR-4
[39] = test system: SF-539
[40] = test system: HL-60
[41] = test system: UACC-257
[42] = test system: SK-MEL-28
[43] = test system: M14
[44] = test system: RXF 393
[45] = test system: SN12C
[46] = test system: SNB-75
[47] = test system: SK-MEL-5
[48] = test system: SK-OV-3
[49] = test system: U-251
[50] = test system: DMS-114
[51] = test system: TK-10
[52] = test system: CCRF-CEM
[53] = test system: SF-268
[54] = test system: MOLT-4
[55] = test system: NCI/ADR-RES
[56] = test system: HCT-116
[57] = test system: COLO 205
[58] = test system: NCI-H226
[59] = test system: HOP-18
[60] = test system: 786-0
[61] = test system: KM-20L2
[62] = test system: Malme-3M
[63] = test system: EKVX
[64] = test system: MCF7
[65] = test system: M19-MEL
[66] = test system: Hs-578T
[67] = test system: UO-31
[68] = test system: CAKI-1

## CN1CCN(Cc2nc3cccc4c3c([n+]2[O-])-c2ccccc2-4)CC1
[1]
  GI50: 36 µM (inactive)
[2]
  GI50: 16.7 µM (inactive)
[3]
  GI50: 30 µM (inactive)
[4]
  GI50: 14.3 µM (inactive)
[5]
  GI50: 29.6 µM (inactive)
[6]
  GI50: 12.6 µM (inactive)
[7]
  GI50: 23.1 µM (inactive)
[8]
  GI50: 32.5 µM (inactive)
[9]
  GI50: 54.5 µM (inactive)
[10]
  GI50: 12.2 µM (inactive)
[11]
  GI50: 39 µM (inactive)
[12]
  GI50: 29.3 µM (inactive)
[13]
  GI50: 17.8 µM (inactive)
[14]
  GI50: 12.9 µM (inactive)
[15]
  GI50: 20.7 µM (inactive)
[16]
  GI50: 11.4 µM (inactive)
[17]
  GI50: 14.9 µM (inactive)
[18]
  GI50: 15.8 µM (inactive)
[19]
  GI50: 37.8 µM (inactive)
[20]
  GI50: 4.19 µM (inactive)
[21]
  GI50: 14.8 µM (inactive)
[22]
  GI50: 22.8 µM (inactive)
[23]
  GI50: 16.9 µM (inactive)
[24]
  GI50: 26.8 µM (inactive)
[25]
  GI50: > 34.2 µM (inactive)
[26]
  GI50: 12.4 µM (inactive)
[27]
  GI50: 38.3 µM (inactive)
[28]
  GI50: 15.8 µM (inactive)
[29]
  GI50: 41 µM (inactive)
[30]
  GI50: 60.4 µM (inactive)
[31]
  GI50: 15.6 µM (inactive)
[32]
  GI50: 53 µM (inactive)
[33]
  GI50: 15.1 µM (inactive)
[34]
  GI50: 44.1 µM (inactive)
[35]
  GI50: 29 µM
[36]
  GI50: 24.9 µM (inactive)
[37]
  GI50: 27.4 µM (inactive)
[38]
  GI50: 25.2 µM (inactive)
[39]
  GI50: 25.4 µM (inactive)
[40]
  GI50: 33.1 µM (inactive)
[41]
  GI50: 24.4 µM (inactive)
[42]
  GI50: 31.7 µM (inactive)
[43]
  GI50: 23.2 µM (inactive)
[44]
  GI50: 10.8 µM (inactive)
[45]
  GI50: 11.7 µM (inactive)
[46]
  GI50: 33 µM (inactive)
[47]
  GI50: 19.1 µM (inactive)
[48]
  GI50: 59.3 µM (inactive)
[49]
  GI50: 20 µM (inactive)
[50]
  GI50: 44.4 µM (inactive)
[51]
  GI50: 43.5 µM (inactive)
[52]
  GI50: 25.9 µM (inactive)
[53]
  GI50: 17.9 µM (inactive)
[54]
  GI50: 12.4 µM (inactive)
[55]
  GI50: 10.6 µM (inactive)
[56]
  GI50: 4.41 µM (inactive)
[57]
  GI50: 16.9 µM (inactive)
[58]
  GI50: 26.8 µM (inactive)
[59]
  GI50: 37.2 µM (inactive)
[60]
  GI50: 14.4 µM (inactive)
[61]
  GI50: 36.4 µM (inactive)
[62]
  GI50: 20.1 µM (inactive)
[63]
  GI50: 31.4 µM (inactive)
[64]
  GI50: 12.8 µM (inactive)
[65]
  GI50: 34 µM (inactive)
[66]
  GI50: 34.9 µM (inactive)
[67]
  GI50: 20 µM (inactive)
[68]
  GI50: 25.5 µM (inactive)

## C=C(Br)N(CC)CC
[1]
  GI50: > 100 µM (inactive)
[2]
  GI50: > 100 µM (inactive)
[3]
  GI50: > 100 µM (inactive)
[4]
  GI50: > 100 µM (inactive)
[5]
  GI50: > 100 µM (inactive)
[7]
  GI50: > 100 µM (inactive)
[8]
  GI50: > 100 µM (inactive)
[9]
  GI50: > 100 µM (inactive)
[10]
  GI50: > 100 µM (inactive)
[13]
  GI50: > 100 µM (inactive)
[14]
  GI50: > 100 µM (inactive)
[15]
  GI50: > 100 µM (inactive)
[18]
  GI50: > 100 µM (inactive)
[19]
  GI50: > 100 µM (inactive)
[20]
  GI50: > 100 µM (inactive)
[21]
  GI50: > 100 µM (inactive)
[22]
  GI50: > 100 µM (inactive)
[23]
  GI50: > 100 µM (inactive)
[24]
  GI50: > 100 µM (inactive)
[25]
  GI50: > 100 µM (inactive)
[26]
  GI50: > 100 µM (inactive)
[27]
  GI50: > 100 µM (inactive)
[29]
  GI50: > 100 µM (inactive)
[30]
  GI50: > 100 µM (inactive)
[32]
  GI50: > 100 µM (inactive)
[33]
  GI50: > 100 µM (inactive)
[34]
  GI50: > 100 µM (inactive)
[35]
  GI50: > 100 µM
[36]
  GI50: > 100 µM (inactive)
[37]
  GI50: > 100 µM (inactive)
[38]
  GI50: > 100 µM (inactive)
[39]
  GI50: > 100 µM (inactive)
[40]
  GI50: > 100 µM (inactive)
[41]
  GI50: > 100 µM (inactive)
[42]
  GI50: > 100 µM (inactive)
[43]
  GI50: > 100 µM (inactive)
[44]
  GI50: > 100 µM (inactive)
[45]
  GI50: > 100 µM (inactive)
[46]
  GI50: > 100 µM (inactive)
[47]
  GI50: > 100 µM (inactive)
[48]
  GI50: > 100 µM (inactive)
[49]
  GI50: > 100 µM (inactive)
[50]
  GI50: > 100 µM (inactive)
[51]
  GI50: > 100 µM (inactive)
[52]
  GI50: > 100 µM (inactive)
[53]
  GI50: > 100 µM (inactive)
[54]
  GI50: > 100 µM (inactive)
[56]
  GI50: > 100 µM (inactive)
[57]
  GI50: > 100 µM (inactive)
[58]
  GI50: > 100 µM (inactive)
[59]
  GI50: > 100 µM (inactive)
[60]
  GI50: > 100 µM (inactive)
[61]
  GI50: > 100 µM (inactive)
[62]
  GI50: > 100 µM (inactive)
[63]
  GI50: > 100 µM (inactive)
[65]
  GI50: > 100 µM (inactive)
[67]
  GI50: > 100 µM (inactive)
[68]
  GI50: > 100 µM (inactive)
